Reference: paper PMC6199744, “Development of Chemical Proteomics for the Folateome and Analysis of the Kinetoplastid Folateome” (ACS Infectious Diseases, 2018)
Where two headings read alike, the source gives them in different places.

Tests used:
Format in all cases: binding
[1] = biological target: T1, HeLa cell extract proteins (Homo sapiens, UniProt P07355)
T1 construct: endogenous in cells; host or cells: HeLa cell extract

[2] = biological target: T2, HeLa cell extract proteins (Homo sapiens, UniProt P08238)
T2 construct: endogenous in cells; host or cells: HeLa cell extract
T2 sequence (P08238 whole entry): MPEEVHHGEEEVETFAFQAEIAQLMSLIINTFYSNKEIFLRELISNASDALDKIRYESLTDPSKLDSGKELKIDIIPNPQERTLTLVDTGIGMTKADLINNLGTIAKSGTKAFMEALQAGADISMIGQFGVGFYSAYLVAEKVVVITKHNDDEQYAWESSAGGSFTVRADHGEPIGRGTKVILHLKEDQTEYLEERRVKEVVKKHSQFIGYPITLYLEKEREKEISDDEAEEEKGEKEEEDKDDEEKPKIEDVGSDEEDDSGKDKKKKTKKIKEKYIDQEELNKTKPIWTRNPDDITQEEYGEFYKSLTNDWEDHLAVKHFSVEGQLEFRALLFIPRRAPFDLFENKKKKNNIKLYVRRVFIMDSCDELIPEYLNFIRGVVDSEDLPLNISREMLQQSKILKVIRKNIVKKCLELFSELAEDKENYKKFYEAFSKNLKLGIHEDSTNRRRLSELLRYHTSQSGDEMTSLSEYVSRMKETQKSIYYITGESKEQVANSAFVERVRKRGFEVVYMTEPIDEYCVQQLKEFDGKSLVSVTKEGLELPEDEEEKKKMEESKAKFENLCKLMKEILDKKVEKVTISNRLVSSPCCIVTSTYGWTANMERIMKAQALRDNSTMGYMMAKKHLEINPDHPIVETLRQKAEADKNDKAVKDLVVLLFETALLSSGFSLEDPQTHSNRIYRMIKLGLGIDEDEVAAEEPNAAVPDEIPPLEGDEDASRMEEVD

[3] = biological target: T3, HeLa cell extract proteins (Homo sapiens, UniProt P08758)
T3 construct: endogenous in cells; host or cells: HeLa cell extract
T3 sequence (P08758 1-320): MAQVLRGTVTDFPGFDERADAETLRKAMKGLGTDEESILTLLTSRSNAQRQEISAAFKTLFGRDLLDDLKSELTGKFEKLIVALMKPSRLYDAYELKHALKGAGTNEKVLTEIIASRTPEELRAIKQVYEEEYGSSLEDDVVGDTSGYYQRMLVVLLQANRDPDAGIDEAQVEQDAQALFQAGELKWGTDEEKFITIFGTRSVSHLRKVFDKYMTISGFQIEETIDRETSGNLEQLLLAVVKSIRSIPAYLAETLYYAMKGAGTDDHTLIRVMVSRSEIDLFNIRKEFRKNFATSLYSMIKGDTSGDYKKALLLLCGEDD

[4] = biological target: T4, HeLa cell extract proteins (Homo sapiens, UniProt P15121)
T4 construct: endogenous in cells; host or cells: HeLa cell extract

[5] = biological target: T5, HeLa cell extract proteins (Homo sapiens, UniProt P40925)
T5 construct: endogenous in cells; host or cells: HeLa cell extract
T5 sequence (P40925 1-334): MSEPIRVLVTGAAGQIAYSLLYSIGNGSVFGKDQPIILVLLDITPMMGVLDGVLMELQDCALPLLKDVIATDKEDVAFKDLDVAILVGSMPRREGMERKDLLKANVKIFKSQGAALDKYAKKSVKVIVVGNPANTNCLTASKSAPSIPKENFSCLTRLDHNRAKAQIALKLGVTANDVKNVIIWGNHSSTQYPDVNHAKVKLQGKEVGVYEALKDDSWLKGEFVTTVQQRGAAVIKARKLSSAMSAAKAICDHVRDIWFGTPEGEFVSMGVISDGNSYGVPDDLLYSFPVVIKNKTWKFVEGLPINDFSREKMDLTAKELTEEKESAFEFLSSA

[6] = biological target: T6, HeLa cell extract proteins (Homo sapiens, UniProt Q8IXB1)
T6 construct: endogenous in cells; host or cells: HeLa cell extract
T6 sequence (Q8IXB1 33-793): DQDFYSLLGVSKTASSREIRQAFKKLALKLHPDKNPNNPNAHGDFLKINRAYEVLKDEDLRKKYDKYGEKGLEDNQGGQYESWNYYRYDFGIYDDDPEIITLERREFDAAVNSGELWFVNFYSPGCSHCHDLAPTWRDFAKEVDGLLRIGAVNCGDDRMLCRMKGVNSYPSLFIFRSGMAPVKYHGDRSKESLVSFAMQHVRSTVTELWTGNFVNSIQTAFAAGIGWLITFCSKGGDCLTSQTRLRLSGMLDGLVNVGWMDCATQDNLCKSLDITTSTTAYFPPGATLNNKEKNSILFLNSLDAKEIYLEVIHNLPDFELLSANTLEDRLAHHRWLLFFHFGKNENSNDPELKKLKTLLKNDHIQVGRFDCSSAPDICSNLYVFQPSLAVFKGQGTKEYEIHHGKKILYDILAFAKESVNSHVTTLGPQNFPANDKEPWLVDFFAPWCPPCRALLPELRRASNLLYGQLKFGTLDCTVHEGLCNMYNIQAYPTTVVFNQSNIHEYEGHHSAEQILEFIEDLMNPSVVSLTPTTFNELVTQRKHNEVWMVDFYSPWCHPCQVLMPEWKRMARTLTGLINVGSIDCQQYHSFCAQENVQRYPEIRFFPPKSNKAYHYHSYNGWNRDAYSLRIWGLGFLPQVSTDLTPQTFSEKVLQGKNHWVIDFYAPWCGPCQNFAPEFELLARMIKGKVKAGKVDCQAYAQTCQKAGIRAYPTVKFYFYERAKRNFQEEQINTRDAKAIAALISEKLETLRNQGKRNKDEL

[7] = biological target: T7, HeLa cell extract proteins (Homo sapiens, UniProt Q969X5)
T7 construct: endogenous in cells; host or cells: HeLa cell extract
T7 sequence (Q969X5 1-290): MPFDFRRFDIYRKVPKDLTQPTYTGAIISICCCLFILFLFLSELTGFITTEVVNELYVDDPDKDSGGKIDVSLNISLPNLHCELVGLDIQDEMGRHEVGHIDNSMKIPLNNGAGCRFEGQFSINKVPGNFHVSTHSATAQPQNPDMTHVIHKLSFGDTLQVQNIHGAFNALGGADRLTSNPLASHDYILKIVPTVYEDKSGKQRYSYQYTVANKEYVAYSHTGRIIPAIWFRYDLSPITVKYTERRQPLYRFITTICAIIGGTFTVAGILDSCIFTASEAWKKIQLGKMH

[8] = biological target: T8, HeLa cell extract proteins (Homo sapiens, UniProt Q96QK1)
T8 construct: endogenous in cells; host or cells: HeLa cell extract

[9] = biological target: T9, HeLa cell extract proteins (Homo sapiens, UniProt Q9BW27)
T9 construct: endogenous in cells; host or cells: HeLa cell extract
T9 sequence (Q9BW27 1-656): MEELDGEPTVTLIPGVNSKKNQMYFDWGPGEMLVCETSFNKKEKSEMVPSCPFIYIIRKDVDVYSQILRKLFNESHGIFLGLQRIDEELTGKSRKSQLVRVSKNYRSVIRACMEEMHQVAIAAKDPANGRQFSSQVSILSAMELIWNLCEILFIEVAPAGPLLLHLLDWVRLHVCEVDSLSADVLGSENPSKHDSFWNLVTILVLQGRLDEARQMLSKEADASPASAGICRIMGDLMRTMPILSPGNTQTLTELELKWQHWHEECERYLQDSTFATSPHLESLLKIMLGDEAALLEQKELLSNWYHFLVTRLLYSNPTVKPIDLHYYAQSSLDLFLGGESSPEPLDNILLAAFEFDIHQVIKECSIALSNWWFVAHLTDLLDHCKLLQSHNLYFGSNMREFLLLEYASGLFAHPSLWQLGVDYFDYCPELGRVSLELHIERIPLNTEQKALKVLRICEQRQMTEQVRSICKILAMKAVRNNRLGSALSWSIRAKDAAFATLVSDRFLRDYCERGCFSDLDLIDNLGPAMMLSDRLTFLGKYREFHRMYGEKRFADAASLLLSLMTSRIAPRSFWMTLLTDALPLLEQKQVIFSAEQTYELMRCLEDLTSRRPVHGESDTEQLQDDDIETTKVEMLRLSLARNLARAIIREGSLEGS

[10] = biological target: T10, HeLa cell extract proteins (Homo sapiens, UniProt Q9Y262)
T10 construct: endogenous in cells; host or cells: HeLa cell extract
T10 sequence (Q9Y262 whole entry): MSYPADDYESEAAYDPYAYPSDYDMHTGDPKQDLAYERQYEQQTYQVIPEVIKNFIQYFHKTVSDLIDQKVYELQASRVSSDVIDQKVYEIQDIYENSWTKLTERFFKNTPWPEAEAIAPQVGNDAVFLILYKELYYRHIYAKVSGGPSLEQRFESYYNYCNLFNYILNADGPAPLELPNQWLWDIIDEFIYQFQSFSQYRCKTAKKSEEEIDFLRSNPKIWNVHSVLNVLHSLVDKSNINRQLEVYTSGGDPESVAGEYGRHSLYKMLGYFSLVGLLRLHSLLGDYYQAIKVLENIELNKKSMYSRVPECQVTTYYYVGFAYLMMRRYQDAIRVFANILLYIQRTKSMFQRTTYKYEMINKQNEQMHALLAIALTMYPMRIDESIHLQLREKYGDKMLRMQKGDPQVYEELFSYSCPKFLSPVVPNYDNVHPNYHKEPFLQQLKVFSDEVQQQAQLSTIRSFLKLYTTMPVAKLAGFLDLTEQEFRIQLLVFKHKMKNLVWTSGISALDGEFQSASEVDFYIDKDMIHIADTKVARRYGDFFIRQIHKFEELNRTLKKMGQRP

[11] = HeLa, protein HSP90AB1 (HEAT SHOCK PROTEIN HSP 90-BETA.)
[12] = HeLa, protein ANXA5 (ANNEXIN A5.)
[13] = HeLa, protein MDH1 (MALATE DEHYDROGENASE, CYTOPLASMIC.)

T1 sequence (P07355 whole entry): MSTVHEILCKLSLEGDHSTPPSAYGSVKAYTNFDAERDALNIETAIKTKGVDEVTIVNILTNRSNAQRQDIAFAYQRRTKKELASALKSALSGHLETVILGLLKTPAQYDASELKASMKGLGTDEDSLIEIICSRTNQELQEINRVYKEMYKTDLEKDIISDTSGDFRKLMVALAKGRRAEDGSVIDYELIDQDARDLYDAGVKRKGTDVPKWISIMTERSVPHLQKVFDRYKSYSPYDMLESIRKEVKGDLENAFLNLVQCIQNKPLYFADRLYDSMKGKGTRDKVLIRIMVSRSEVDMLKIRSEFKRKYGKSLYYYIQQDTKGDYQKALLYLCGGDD

| SMILES | fold changes relative to vehicle control ([1]; HeLa, protein ANXA2) | fold changes relative to vehicle control ([2]; HeLa, protein HSP90AB1) | fold changes relative to vehicle control ([3]; HeLa, protein ANXA5) | fold changes relative to vehicle control ([4]; HeLa, protein AKR1B1) | fold changes relative to vehicle control ([5]; HeLa, protein MDH1) | fold changes relative to vehicle control ([6]; HeLa, protein DNAJC10) | fold changes relative to vehicle control ([7]; protein ERGIC1, HeLa) | fold changes relative to vehicle control ([8]; HeLa, protein VPS35) | fold changes relative to vehicle control ([9]; protein NUP85, HeLa) | fold changes relative to vehicle control ([10]; HeLa, captured protein EIF3L) | fold changes relative to vehicle control ([1]; protein ANXA2, HeLa) | fold changes relative to vehicle control [2, 11] [fold] | fold changes relative to vehicle control [3, 12] [fold] | fold changes relative to vehicle control ([4]; protein AKR1B1, HeLa) | fold changes relative to vehicle control [5, 13] [fold] | fold changes relative to vehicle control ([7]; captured protein ERGIC1, HeLa) | fold changes relative to vehicle control ([8]; protein VPS35, HeLa) | fold changes relative to vehicle control ([9]; captured protein NUP85, HeLa) | fold changes relative to vehicle control ([10]; protein EIF3L, HeLa) | other results |
| --- | --- | --- | --- | --- | --- | --- | --- | --- | --- | --- | --- | --- | --- | --- | --- | --- | --- | --- | --- | --- |
| Nc1nc2c(c(=O)[nH]1)N(C=O)C(CNc1ccc(C(=O)N[C@@H](CCC(=O)O)C(=O)O)cc1)CN2 (stereo partly shown) [LEU, leucovorin] | 1 | 1.08 | 0.99 | 1.1 | 1.01 | 0.89 | 0.77 | 0.91 | 0.82 | 1 | – | – | – | – | – | – | – | – | – | – |
| Nc1nc2[nH]cc(CCc3ccc(C(=O)N[C@@H](CCC(=O)O)C(=O)O)cc3)c2c(=O)[nH]1 [PTX, pemetrexed] | – | – | – | – | – | – | – | – | – | – | – | – | – | – | – | – | – | – | – | fold changes relative to vehicle control [1]: 1.1; fold changes relative to vehicle control [2]: 1.14; fold changes relative to vehicle control [3]: 0.97; fold changes relative to vehicle control [4]: 1.22; fold changes relative to vehicle control [5]: 1.2; fold changes relative to vehicle control [6]: 0.91; fold changes relative to vehicle control [7]: 0.85; fold changes relative to vehicle control [8]: 1.05; fold changes relative to vehicle control [9]: 0.9; fold changes relative to vehicle control [10]: 0.91 |
| CCCCCCOc1ccc(Cc2cnc(N)nc2N)cc1 [compound 1] | – | – | – | – | – | 0.89 | – | – | – | – | 1.18 | 1.5 | 1.33 | 1.12 | 1.3 | 0.94 | 1.13 | 0.93 | 1.05 | – |
| CCCCCCOc1cccc(Cc2cnc(N)nc2N)c1 [compound 2] | – | – | – | – | – | 0.85 | – | – | – | – | 1.87 | 2.33 | 2.23 | 1.7 | 2.15 | 1.02 | 1.7 | 0.96 | 1.25 | – |
| Nc1nc2cccc(-c3ccccc3)c2n1Cc1ccc(Cl)c(Cl)c1 [compound 3] | – | – | – | – | – | 1.04 | – | – | – | – | 0.9 | 1.06 | 0.91 | 0.8 | 0.87 | 1.1 | 0.96 | 0.9 | 1.09 | – |
| NCCOCCOCC(=O)Nc1nc2ncc(CNc3ccc(C(=O)NC(CCC(=O)O)C(=O)O)cc3)nc2c(=O)[nH]1 (stereo not shown) [compound 6] | 1.32 | 1.36 | 1.26 | 1.2 | 1.42 | 0.89 | 0.86 | 1.15 | 0.93 | 1.07 | – | – | – | – | – | – | – | – | – | – |
| NCCCNc1ccc(C(=O)NC(CCC(=O)O)C(=O)O)cc1 (stereo not shown) [compound 7] | 0.97 | 0.98 | 0.9 | 0.95 | 0.93 | 0.94 | 1.31 | 1.1 | 0.95 | 0.93 | – | – | – | – | – | – | – | – | – | – |
